Data on one molecule can be found in patent publication US10781209B2, “1H-pyrrolo[2,3-c]pyridin-7(6H)-ones and pyrazolo[3,4-c]pyridin-7(6H)-ones as inhibitors of BET proteins” (Incyte Corporation, priority 2014, dated 2020).

The subject of this assay is KMS.12.BM cells. Kind of assay: KMS.12.BM cell viability assay (Cell Titer-GLO, ATP quantitation). It counts as cell-based. The note with it: 72 h, human myeloma cell line, 3 days, concentration required for 50% cell death. On the procedure:
KMS.12.BM cell line (human myeloma) was purchased from JCRB (Osaka, Japan) and maintained in RPMI with 10% FBS culture medium. To measure the cytotoxic activity of the compounds through ATP quantitation, the KMS.12.BM cells are plated in the RPMI culture medium at 5000 cells/well/per 100 μL into a 96-well polystyrene clear black tissue culture plate (Greiner-bio-one through VWR, NJ), in the presence or absence of a concentration range of test compounds. After 3 days, […] Cell Titer-GLO Luminescent (Promega, Madison, Wis.) cell culture agent is added to each well for 10 minutes at room temperature to stabilize the luminescent signal. This determines the number of viable cells in culture based on quantitation of the ATP present, which signals the presence of metabolically active cells. Luminescence is measured with the Top Count 384 (Packard Bioscience through Perkin Elmer, Boston, Mass.). Compound inhibition is determined relative to cells cultured with no drug and the IC50 is reported as the compound concentration required for 50% cell death.
(Cellular ATP, detected with luciferase, serves as a proxy for viable cell number.)

Each structure is given as a SMILES string.

`Cn1cc(-c2cccc3c2OC(c2ccccn2)C(=O)N3)c2cc[nH]c2c1=O` (stereo not shown) [Example 5, 8-(6-methyl-7-oxo-6,7-dihydro-1H-pyrrolo[2,3-c]pyridin-4-yl)-2-pyridin-2-yl-2H-1,4-benzoxazin-3(4H)-one 2,2,2-trifluoroacetate]: the IC50 – broadly, the concentration at which inhibition is half-maximal – was not above 1 µM.
